Assay type in all cases: cell-based
Data set [1] concerns 2H4 cells. The data set can be described thus: IL-2 Luc assay: evaluation of chemical substance in 2H4 cells. The following applies: 1 h chemical, then PMA/ionomycin, luminescence after six hours, class from Min % suppression of nIL2LA. As for the experimental part: (§1) 2H4 cells were established from Jurkat cells according to the method described in PTL 1. First, for the preparation of 2H4 cells, a plasmid having SLG introduced downstream of the IL-2 promoter, a plasmid having SLR introduced downstream of the G3PDH promoter, and a plasmid having SLO introduced downstream of the INF-γ promoter were prepared as internal standards. These plasmids contained a resistance gene for hygromycin B, puromycin, and neomycin downstream of SLG, SLR, and SLO, respectively. The conditions for drug selection after transfection of the host Jurkat cells were as follows: in the primary selection, the cells were cultured for 1 week in the presence of a drug. In the secondary selection culture, the cells that survived in the primary selection culture were seeded in a 96-well plate at 1 cell/well or 200 cells/well, and cultured for 2 weeks under the same drug conditions. After the secondary selection culture, the cells were subjected to clone selection from the two points of signal intensity and signal induction by drug treatment. The G3PDH promoter SLR was first introduced to establish monochromatic stable cell line Jurkat: G3PDH-SLR #14D1 cells. These cells were used as the parent cell line to introduce the INF-γ promoter SLO, thereby establishing bichromatic stable cell line Jurkat: INFγ-SLO/G3PDH-SLR #2B12 cells. Subsequently, the obtained cells were used as a parent cell line to introduce the IL-2 promoter SLG, thereby establishing trichromatic stable cell line Jurkat IL-2-SLG/INFγ-SLO/G3PDH-SLR #2H4 cells.
(§2) % suppression={(nIL2LA in 2H4 cells untreated with a chemical substance)−(nIL2LA in 2H4 cells treated with a chemical substance)}×100/(nIL2LA in 2H4 cells untreated with a chemical substance) ---(1) Inh-GAPLA=(GAPLA in 2H4 cells treated with a chemical substance)/(GAPLA in 2H4 cells untreated with a chemical substance) ---(2)
The chemical substances listed in Table 1 were evaluated using 2H4 cells. 2H4 cells were seeded in a 96-well plate at 2×10^5 cells/50 μl/well and treated with each chemical substance for 1 hour, followed by incubating the cells with 25 nM PMA and 1 µM ionomycin […]. After six hours from the treatment with PMA and ionomycin, Tripluc: Assay Reagent (manufactured by Toyobo Co., Ltd.) was added, and the amount of luminescence was measured with a Phelios microplate luminometer (manufactured by Atto Corporation). For control, 2H4 cells untreated with a chemical substance were also examined in the same manner. The amount of luminescence of SLG luciferase activity (IL2LA), SLR luciferase activity (GAPLA), and SLO luciferase activity (IFNLA) was measured, and IL-2LA and IFNLA were each normalized by GAPLA and determined to be nIL2LA and nIFNLA, respectively. Thereafter, for the concentration of each chemical substance, the value of suppression was calculated according to formula (1) above, and the chemical substances were evaluated by using their minimum value (Min suppression).

Data set [2] relates to 2H4 cells. As to the kind of experiment: IL-2 Luc LTT: evaluation of chemical substance in 2H4 cells. The settings on record: 1 h chemical, then 25 nM PMA and 1 μM ionomycin 24 h, class from Min % suppression (nIL2LA) and Min Inh-GAPLA. As for the experimental part: as §1
The chemical substances listed in Table 1 were evaluated using 2H4 cells. 2H4 cells were seeded in a 96-well plate at 1×10^4/well and treated with each chemical substance for 1 hour, followed by incubating the cells with 25 nM PMA and 1 μM ionomycin for 24 hours. After 24 hours from the treatment with PMA and ionomycin, Tripluck Assay Reagent (manufactured by Toyobo Co., Ltd.) was added, and the amount of luminescence was measured with a Phelios microplate luminometer (manufactured by Atto Corporation). For control, 2H4 cells untreated with a chemical substance were also examined in the same manner. The amount of luminescence of SLG luciferase activity (IL2LA), SLR luciferase activity (GAPLA), and SLO luciferase activity (IFNLA) was measured, and IL-2LA and IFNLA were each normalized by GAPLA and determined to be nIL2LA and nIFNLA, respectively. Thereafter, for the concentration of each chemical substance, “% suppression” and “Inh-GAPLA” were determined according to the following formulas (1) and (2), and the chemical substances were evaluated by using their minimum value (Min % suppression, Min Inh-GAPLA).
In the evaluation, for control, PMA/ionomycin-treated 2H4 cells and PMA/ionomycin-untreated 2H4 cells were also measured for nIL2LA.
as §2

For data set [3], the system named is 2H4 cells. As to the kind of experiment: Evaluation of combination of IL-2 Luc LTT and IL-2 Luc assay. Set-up: key: Positive (Pos): If the result is either LCT in the IL-2 Luc LTT or S in the IL-2 Luc assay, or both, the chemical substance is determined to be an immunosuppressive substance.; Negative (Neg): In the case other than the above, the chemical substance is determined to be a non-immunosuppressive substance. The following applies: LCT in IL-2 Luc LTT or S in IL-2 Luc assay = Pos. As for the experimental part:
Positive (Pos): If the result is either LCT in the IL-2 Luc LTT or S in the IL-2 Luc assay, or both, the chemical substance is determined to be an immunosuppressive substance. Negative (Neg): In the case other than the above, the chemical substance is determined to be a non-immunosuppressive substance.

Structures are written as SMILES.

For the compound `O=c1[nH]cc(F)c(=O)[nH]1` [5-Fluorouracil], in the data set with 2H4 cells [1], the “IL-2 Luc Assay” value is “N (−35<Min % suppression <35: No Effect (denoted as “N”; determined to not affect immunity))”. Also, the “IL-2 Luc LTT” value in the data set on 2H4 cells [2] is “LCT (Min % suppression ≤−35 and Min Inh-GAPLA <0.7: Leukocyte toxic (denoted as “LCT”; determined to have cell growth inhibition action and/or metabolic activity inhibition action))”. Besides, in the data set on 2H4 cells [3], the “Evaluation of Combination” value was “Pos”.

Regarding `S=c1nc[nH]c2nc[nH]c12` [6-Mercaptoprine], the “IL-2 Luc Assay” value in the data set with 2H4 cells [1] is “N (−35<Min % suppression <35: No Effect (denoted as “N”; determined to not affect immunity))”. In the data set on 2H4 cells [2], the “IL-2 Luc LTT” value is given as “NLCT”. In addition, the “Evaluation of Combination” value with 2H4 cells [3] was “Neg”.

In the case of `Nc1nc2nc[nH]c2c(=S)[nH]1` [6-Thioguanine], the “IL-2 Luc Assay” value with 2H4 cells [1] is listed as “N (−35<Min % suppression <35: No Effect (denoted as “N”; determined to not affect immunity))”. In addition, the “IL-2 Luc LTT” value in the data set on 2H4 cells [2] is “LCT (Min % suppression ≤−35 and Min Inh-GAPLA <0.7: Leukocyte toxic (denoted as “LCT”; determined to have cell growth inhibition action and/or metabolic activity inhibition action))”. In the data set with 2H4 cells [3], the “Evaluation of Combination” value is on record as “Pos”.

Take `CC(=O)Nc1ccc(O)cc1` [Acetaminophen (AA), Acetaminophen]: the “IL-2 Luc Assay” value with 2H4 cells [1] is on record as “A (Min suppression ≤−35: Augmentation (denoted as “A”; determined to have immunoaugmenting action))”. In addition, the “Evaluation of Combination” value in the data set with 2H4 cells [3] is “Pos”.

Consider `Nc1nc2c(ncn2COCCO)c(=O)[nH]1` [Acyclovir], for which the “IL-2 Luc Assay” value in the data set on 2H4 cells [1] was “N (−35<Min % suppression <35: No Effect (denoted as “N”; determined to not affect immunity))”. In addition, in the data set with 2H4 cells [2], the “IL-2 Luc LTT” value was “I (−35<Min % suppression <35 and 0.7≤Min Inh-GAPLA: Inconclusive (denoted as “I”; possibly not measurable due to low water solubility))”. In the data set with 2H4 cells [3], the “Evaluation of Combination” value is given as “Neg”.

In the case of `Cn1cnc([N+](=O)[O-])c1Sc1ncnc2nc[nH]c12` [Azathioprine (AZ), Azathioprine], in the data set on 2H4 cells [1], the “IL-2 Luc Assay” value is “S (Min %; suppression ≥35: Suppression (denoted as “S”; determined to have immunosuppressive action))”. For the same compound, the “IL-2 Luc LTT” value in the data set with 2H4 cells [2] is “NLCT”. Moreover, the “Evaluation of Combination” value in the data set with 2H4 cells [3] was “Pos”.

Consider `CS(=O)(=O)OCCCCOS(C)(=O)=O` [Busulfan], for which, in the data set with 2H4 cells [1], the “IL-2 Luc Assay” value was “N (−35<Min % suppression <35: No Effect (denoted as “N”; determined to not affect immunity))”. Moreover, the “IL-2 Luc LTT” value in the data set on 2H4 cells [2] is “I (−35<Min % suppression <35 and 0.7≤Min Inh-GAPLA: Inconclusive (denoted as “I”; possibly not measurable due to low water solubility))”. Further, the “Evaluation of Combination” value in the data set on 2H4 cells [3] is “Neg”.

Regarding `O=NN(CCCl)C(=O)NCCCl` [Carmustine], the “IL-2 Luc Assay” value in the data set with 2H4 cells [1] was “S (Min %; suppression ≥35: Suppression (denoted as “S”; determined to have immunosuppressive action))”. In the data set with 2H4 cells [2], the “IL-2 Luc LTT” value is listed as “NLCT”. Also, the “Evaluation of Combination” value in the data set on 2H4 cells [3] is listed as “Pos”.

As to `CCN(CC)CCCC(C)Nc1ccnc2cc(Cl)ccc12` (centres unmarked) [Chloroquine (CQ), Chloroquine], the “IL-2 Luc Assay” value in the data set with 2H4 cells [1] is recorded as “S (Min %; suppression ≥35: Suppression (denoted as “S”; determined to have immunosuppressive action))”. The “IL-2 Luc LTT” value with 2H4 cells [2] is “NLCT”. In the data set on 2H4 cells [3], the “Evaluation of Combination” value is “Pos”.

Regarding `NS(=O)(=O)c1cc2c(cc1Cl)N=CNS2(=O)=O` [Chlorothiazide], in the data set on 2H4 cells [1], the “IL-2 Luc Assay” value is listed as “N (−35<Min % suppression <35: No Effect (denoted as “N”; determined to not affect immunity))”. Further, the “IL-2 Luc LTT” value in the data set with 2H4 cells [2] is “NLCT”. The “Evaluation of Combination” value in the data set with 2H4 cells [3] is reported as “Neg”.

With `COc1cc2c(c(OC)c1OC)-c1ccc(OC)c(=O)cc1[C@@H](NC(C)=O)CC2` [Colchicine], the “IL-2 Luc Assay” value in the data set on 2H4 cells [1] was “S (Min %; suppression ≥35: Suppression (denoted as “S”; determined to have immunosuppressive action))”. Further, the “IL-2 Luc LTT” value with 2H4 cells [2] is “LCT (Min % suppression ≤−35 and Min Inh-GAPLA <0.7: Leukocyte toxic (denoted as “LCT”; determined to have cell growth inhibition action and/or metabolic activity inhibition action))”. Further, the “Evaluation of Combination” value in the data set on 2H4 cells [3] was “Pos”.

In the case of `Nc1ccn([C@@H]2O[C@H](CO)[C@@H](O)[C@@H]2O)c(=O)n1` [Cytarabine], the “IL-2 Luc Assay” value with 2H4 cells [1] was “N (−35<Min % suppression <35: No Effect (denoted as “N”; determined to not affect immunity))”. Besides, the “IL-2 Luc LTT” value in the data set with 2H4 cells [2] is “LCT (Min % suppression ≤−35 and Min Inh-GAPLA <0.7: Leukocyte toxic (denoted as “LCT”; determined to have cell growth inhibition action and/or metabolic activity inhibition action))”. Further, the “Evaluation of Combination” value in the data set with 2H4 cells [3] is reported as “Pos”.

`C[C@@H]1C[C@H]2[C@@H]3CCC4=CC(=O)C=C[C@]4(C)[C@@]3(F)[C@@H](O)C[C@]2(C)[C@@]1(O)C(=O)CO` [Dexamethasone (Dex), Dexamethasone]: in the data set with 2H4 cells [1], the “IL-2 Luc Assay” value is on record as “N (−35<Min % suppression <35: No Effect (denoted as “N”; determined to not affect immunity))”. Also, the “IL-2 Luc LTT” value in the data set with 2H4 cells [2] is reported as “NLCT”. Also, the “Evaluation of Combination” value in the data set with 2H4 cells [3] is reported as “Neg”.

For the compound `C[C@H]1O[C@@H](O[C@H]2[C@@H](O)C[C@H](O[C@H]3[C@@H](O)C[C@H](O[C@H]4CC[C@@]5(C)[C@H](CC[C@@H]6[C@@H]5C[C@@H](O)[C@]5(C)[C@@H](C7=CC(=O)OC7)CC[C@]65O)C4)O[C@@H]3C)O[C@@H]2C)C[C@H](O)[C@@H]1O` [Digoxin], the “IL-2 Luc Assay” value in the data set with 2H4 cells [1] is “S (Min %; suppression ≥35: Suppression (denoted as “S”; determined to have immunosuppressive action))”. Further, the “IL-2 Luc LTT” value with 2H4 cells [2] is “NLCT”. Also, the “Evaluation of Combination” value in the data set with 2H4 cells [3] was “Pos”.

Take `CN(C)CCOC(c1ccccc1)c1ccccc1` [Diphenhydramine]: the “IL-2 Luc Assay” value in the data set on 2H4 cells [1] is “S (Min %; suppression ≥35: Suppression (denoted as “S”; determined to have immunosuppressive action))”. Further, the “IL-2 Luc LTT” value with 2H4 cells [2] is reported as “NLCT”. The “Evaluation of Combination” value with 2H4 cells [3] is “Pos”.

As to `COc1cc([C@@H]2c3cc4c(cc3[C@@H](O[C@@H]3O[C@@H]5CO[C@@H](C)O[C@H]5[C@H](O)[C@H]3O)[C@H]3COC(=O)[C@H]23)OCO4)cc(OC)c1O` [Etoposide], the “IL-2 Luc Assay” value with 2H4 cells [1] is given as “N (−35<Min % suppression <35: No Effect (denoted as “N”; determined to not affect immunity))”. For the same compound, the “Evaluation of Combination” value in the data set on 2H4 cells [3] is “Pos”.

Turning to `COc1ccc2c(c1)c(CC(=O)O)c(C)n2C(=O)c1ccc(Cl)cc1` [Indomethacin], the “IL-2 Luc Assay” value in the data set on 2H4 cells [1] is “S (Min %; suppression ≥35: Suppression (denoted as “S”; determined to have immunosuppressive action))”. In the data set on 2H4 cells [3], the “Evaluation of Combination” value is “Pos”.

`O=C(O)c1cc(/N=N/c2ccc(S(=O)(=O)Nc3ccccn3)cc2)ccc1O` [Sulfasalazine (SASP), Sulfasalazine]: in the data set with 2H4 cells [1], the “IL-2 Luc Assay” value was “S (Min %; suppression ≥35: Suppression (denoted as “S”; determined to have immunosuppressive action))”. Further, in the data set with 2H4 cells [3], the “Evaluation of Combination” value is listed as “Pos”.
